Usually Ki stands for a measure of affinity in units of concentration, obtained from inhibition or displacement.

Results on 23 compounds are retold here after patent publication US8288423B2, “FXa inhibitors with cyclic amidines as P4 subunit, processes for their preparations, and pharmaceutical compositions and derivatives thereof” (Legochem Bioscience Ltd., priority 2007, dated 2012).

One experiment has as its target T1, factor Xa (Homo sapiens, UniProt P00742).
T1 construct: purchased Enzyme Research Laboratories
Briefly: Inhibiting activity of factor Xa inhibitor (chromogenic substrate S-2765). It is filed as biochemical. The conditions noted are these: calculated from IC50 by Equation 1, Km 125 μM; S-2765 substrate, pH 7.8, 37° C.; read-out: Ki (nM), factor Xa inhibition constant. The method, then: Relative rate of hydrolysis (as compared to control group without inhibition) was plotted versus logarithm of the concentration of the oxazolidinone derivative with a cyclic amidine represented by Chemical Formula (1) according to the invention, to obtain the concentration of the inhibitor for 50% decrease in the rate of hydrolysis of the substrate.
The inhibition constant can be obtained by spectrophotometry whereby the color development is determined as a function of time, after being reacted with a specific substrate which develops color upon hydrolysis caused by action of factor Xa.
For the inhibitor solution, the inhibitor compound according to the present invention was diluted with dimethylsulfoxide (DMSO) in 10 mM, and then further diluted with third-distilled water (finally 10% DMSO solution), and the solution (10 μL) was added to each well. […] The substrate solution (20 μL) thus prepared was added to each well.
Kinetic analysis of the reaction was performed by a kinetic plate reader (Molecular Devices, Spectramax 190) at 37° C. for 20 minutes.
Relative rate of hydrolysis (compared to control group without inhibition) versus logarithm of the oxazolidinone derivative with a cyclic amidine group (Chemical Formula I) was plotted to obtain the concentration of the inhibitor to decrease the rate of hydrolysis of the substrate by 50%. GraFit (version 5.0.12) program for statistical process purchased from Erithacus Software was employed.
When inhibition constant Ki is calculated, it can be calculated according to Equation (1).

The subject of a further experiment is thrombus formation. Nature of the experiment: % inhibition against thrombus formation, arteriovenous shunt model in white rats. The settings on record: orally administered 1 hour before opening of the shunt; 15 minutes circulation; versus control group. Also on record: concentration or dose not given beside the values. The class given is in vivo, white rats (male Sprague Dawley). The method, then: 3) Determination of % Inhibition Against Thrombus Formation by Means of Arteriovenous Shunt Model ([…]) in White Rats Antithrombotic effect of the compounds according to the present invention was evaluated by using arteriovenous shunt model in white rats. The animals used were male Sprague Dawleys with the body weight of 200-250 g. For one day before the experiment, the animals were fasted. Five to six animals were used for each test group. The compound of Example was orally administered 1 hour before opening of the shunt. The rats were anesthetized by abdominal administration of Rompun (Bay HealthCare) and Chloral hydrate or urethane in an amount of 12 and 50 mg per kg of the body weight. Into the left carotid artery and right jugular vein of the white rat, a polyethylene(PE)-60 tubing filled with physiological saline was inserted and secured. Both ends of individual PE tubing were connected to a silicone tubing having a length of 5 cm in which a cotton thread have been incorporated diagonally, and the shunt was open to provide circulation for 15 minutes. The shunt was then compressed by using jaws, and the cotton thread was carefully removed and the thrombus generated was weighed. The % inhibition of thrombus formation was calculated by using the weight of thrombus obtained from white rats of the control group to which a solution of oral administration was administered.

A further experiment concerns Citrated plasma. Briefly: Measurement of PT (prothrombin time) in citrated plasma. It is filed as biochemical. The settings on record: STA-Neoplastine, 37° C., unit not given (2×PT value). As for the experimental part: The effect of oxazolidinone derivatives with cyclic amidines represented by Chemical Formula (1) according to the invention on blood coagulation was compared by measuring PT (prothrombin time) and aPTT (activated Partial Thromboplastin Time). The procedure of measurement is described below. Citrated plasma was purchased from Daejeon-Chungnam Blood Institute (located at Daejeon, Korea). A compound solution (5 μL) according to the invention (in a various concentration gradient, 5% DMSO solution) was added to the plasma ([…]), and the reaction was carried out at 37° C. for 5 minutes. STA-Neoplastine (Diagnostica Stago) (100 μL) was then added thereto, and the duration for plasma coagulation was measured. The duration for plasma coagulation is determined as the point when the absorbance at 340 nm reaches 0.1.

Another experiment deals with plasma. Briefly: Measurement of aPTT (activated partial thromboplastin time) in plasma. The class given is biochemical. Also on record: unit not given here. The conditions noted are these: STA-PTT, CaCl2, 37° C., unit not given. The method, then:
The effect of oxazolidinone derivatives with cyclic amidines represented by Chemical Formula (1) according to the invention on blood coagulation was compared by measuring PT (prothrombin time) and aPTT (activated Partial Thromboplastin Time). The procedure of measurement is described below. A solution (5 μL) of the oxazolidinone derivative with cyclic amidine group represented by Chemical Formula (1) according to the invention (in a various concentration gradient, 5% DMSO solution) was added to the plasma ([…]), and the reaction was carried out at 37° C. for 2 minutes. STA-PTT (Diagnostica Stago) (50 μL) was then added thereto. After the reaction at 37° C. for additional 5 minutes, 25 mM CaCl2 (50 μL) was added thereto, and the duration for plasma coagulation was measured. The duration for plasma coagulation was determined as the point when the absorbance at 340 nm reaches 0.1.

Molecules are shown by their SMILES.

T1 sequence (P00742 235-488 limits assumed): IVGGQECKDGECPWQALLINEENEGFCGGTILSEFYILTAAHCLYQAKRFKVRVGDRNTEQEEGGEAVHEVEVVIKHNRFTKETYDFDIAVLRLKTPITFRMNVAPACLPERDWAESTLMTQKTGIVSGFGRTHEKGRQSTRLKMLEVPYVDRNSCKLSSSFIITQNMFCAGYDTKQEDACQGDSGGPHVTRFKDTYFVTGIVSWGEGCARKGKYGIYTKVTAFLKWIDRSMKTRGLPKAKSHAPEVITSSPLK
T1 sequence (P00742 41-179 partner limits assumed): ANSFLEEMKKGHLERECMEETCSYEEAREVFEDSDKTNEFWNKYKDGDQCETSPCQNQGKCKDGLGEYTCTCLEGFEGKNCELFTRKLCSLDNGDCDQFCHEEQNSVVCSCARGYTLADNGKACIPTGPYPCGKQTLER

For `O=C(NC[C@H]1CN(c2ccc(C3=NCCCN3)cc2)C(=O)O1)c1ccc(Cl)s1` [Compound 106, 5-chlorothiophene-2-carboxylic acid {(S)-2-oxo-3-[4-(1,4,5,6-tetrahydropyrimidine-2-yl)-phenyl]-oxazolidin-5-ylmethyl}-amide], the inhibitory constant (Ki) on factor Xa is 13.1 nM. In the experiment with thrombus formation, the “% Inhibition (of thrombus formation)” value came out at 0%. This compound also returned a PT in the experiment with Citrated plasma of 0.09. Moreover, in the experiment on plasma, the APTT stood at 0.55.
Take `CN1CCN=C1c1ccc(N2C[C@H](CNC(=O)c3ccc(Br)s3)OC2=O)cc1` [Compound 108, 5-bromothiophene-2-carboxylic acid {(S)-3-[4-(1-methyl-4,5-dihydro-1H-imidazol-2-yl)-phenyl]-2-oxo-oxazolidin-5-ylmethyl}-amide]: the Ki on factor Xa is 2.42 nM. Also, the “% Inhibition (of thrombus formation)” value in the experiment with thrombus formation is 30%. In the experiment with Citrated plasma, this compound gave a PT of 0.03. In the experiment with plasma, this compound yielded an APTT of 0.15.
`CCN1CCN=C1c1ccc(N2C[C@H](CNC(=O)c3ccc(Br)s3)OC2=O)cc1` [Compound 109, 5-bromothiophene-2-carboxylic acid {(S)-3-[4-(1-ethyl-4,5-dihydro-1H-imidazol-2-yl)-phenyl]-2-oxo-oxazolidin-5-ylmethyl}-amide]: the Ki at factor Xa was 4.67 nM. Also, the “% Inhibition (of thrombus formation)” value in the experiment with thrombus formation came out at 26%.
Take `CCN1CCN=C1c1ccc(N2C[C@H](CNC(=O)c3ccc(Cl)s3)OC2=O)cc1F` [Compound 110]: the inhibitory constant (Ki) at factor Xa is 4.4 nM. For the same compound, the “% Inhibition (of thrombus formation)” value in the experiment with thrombus formation came to 38%. The PT in the experiment on Citrated plasma came to 0.03. Besides, in the experiment on plasma, the APTT was 0.19.
On to `CN1CCCN=C1c1ccc(N2C[C@H](CNC(=O)c3ccc(Cl)s3)OC2=O)cc1F` [Compound 111, 5-chloro-thiophene-2-carboxylic acid {(S)-3-[3-fluoro-4-(1-methyl-1,4,5,6-tetrahydropyrimidin-2-yl)-phenyl]-2-oxo-oxazolidin-5-ylmethyl}-amide], for which the Ki on factor Xa was 10.5 nM. For the same compound, the “% Inhibition (of thrombus formation)” value with thrombus formation is 49%. The PT in the experiment with Citrated plasma worked out at 0.03. Besides, the APTT with plasma was 0.28.
As to `CCN1CCN=C1c1ccc(N2C[C@H](CNC(=O)c3ccc(Cl)s3)OC2=O)cc1Cl` [Compound 112, 5-chlorothiophene-2-carboxylic acid {(S)-3-[3-chloro-4-(1-ethyl-4,5-dihydro-1H-imidazol-2-yl)-phenyl]-2-oxo-oxazolidin-5-ylmethyl}-amide], the Ki on factor Xa was 4.05 nM. Further, the “% Inhibition (of thrombus formation)” value in the experiment on thrombus formation was 26%. The compound further displayed a PT in the experiment on Citrated plasma of 0.05. In addition, in the experiment on plasma, the APTT is 0.19.
The corresponding values for `CN1CCCN=C1c1ccc(N2C[C@H](CNC(=O)c3ccc(Cl)s3)OC2=O)cc1Cl` [Compound 113, 5-chloro-thiophene-2-carboxylic acid {(S)-3-[3-chloro-4-(1-methyl-1,4,5,6-tetrahydropyrimidin-2-yl)-phenyl]-2-oxo-oxazolidin-5-ylmethyl}-amide] are 9.19 nM, 53%, 0.11 and 0.35.
As for `CC1=NCCN1c1ccc(N2C[C@H](CNC(=O)c3ccc(Cl)s3)OC2=O)cc1` [Compound 114], the Ki at factor Xa is 2.45 nM. The “% Inhibition (of thrombus formation)” value in the experiment with thrombus formation stood at 41%. In addition, the PT in the experiment with Citrated plasma is given as 0.03. This compound came in with an APTT in the experiment with plasma of 0.12.
`O=C(NC[C@H]1CN(c2ccc(N3C=NCC3)cc2)C(=O)O1)c1ccc(Cl)s1` [Compound 115]: the Ki at factor Xa was 1.29 nM. Also, the PT with Citrated plasma turned out to be 0.34. In the experiment on plasma, this compound came in with an APTT of 2.61.
For `O=C(NC[C@H]1CN(c2ccc(N3CCN=C3C3CCC3)cc2)C(=O)O1)c1ccc(Cl)s1` [Compound 118], the inhibition constant Ki at factor Xa was 69.9 nM. In the experiment on Citrated plasma, this compound had a PT of 0.58.
As for `CC(C)CC1=NCCN1c1ccc(N2C[C@H](CNC(=O)c3ccc(Cl)s3)OC2=O)cc1` [Compound 119], the inhibition constant (Ki) on factor Xa is 3.7 nM. Also, in the experiment on thrombus formation, the “% Inhibition (of thrombus formation)” value is reported as 4%. The compound also yielded a PT in the experiment with Citrated plasma of 0.03.
On to `C=C(C)C1=NCCN1c1ccc(N2C[C@H](CNC(=O)c3ccc(Cl)s3)OC2=O)cc1` [Compound 120], for which, at factor Xa, the Ki was 27.9 nM. Besides, in the experiment with thrombus formation, the “% Inhibition (of thrombus formation)” value amounted to 37%. Also, the PT in the experiment on Citrated plasma amounted to 0.31.
`CC(C)=CC1=NCCN1c1ccc(N2C[C@H](CNC(=O)c3ccc(Cl)s3)OC2=O)cc1` [Compound 121]: the inhibitory constant (Ki) on factor Xa is 1.81 nM. For the same compound, the “% Inhibition (of thrombus formation)” value with thrombus formation is on record as 35%. Besides, in the experiment with Citrated plasma, the PT is 0.06.
With `O=C(NC[C@H]1CN(c2ccc(N3CCN=C3C3CCOC3)cc2)C(=O)O1)c1ccc(Cl)s1` (some centres unmarked) [Compound 125], the inhibition constant (Ki) on factor Xa was 2.33 nM. Further, in the experiment on thrombus formation, the “% Inhibition (of thrombus formation)” value is recorded as 42%. The same compound yielded a PT in the experiment with Citrated plasma of 0.05.
Regarding `O=C(NC[C@H]1CN(c2ccc(N3CCN=C3c3ccncc3)cc2)C(=O)O1)c1ccc(Cl)s1` [Compound 126], the Ki on factor Xa was 12.8 nM. Also, the “% Inhibition (of thrombus formation)” value in the experiment on thrombus formation worked out at 22%. This compound also had a PT with Citrated plasma of 0.16.
`O=C(NC[C@H]1CN(c2ccc(N3CCN=C3c3cccnc3)cc2)C(=O)O1)c1ccc(Cl)s1` [Compound 127]: the Ki on factor Xa is 6.14 nM. For the same compound, the “% Inhibition (of thrombus formation)” value in the experiment on thrombus formation is given as 27%. The compound further yielded a PT with Citrated plasma of 0.12.
`O=C(NC[C@H]1CN(c2ccc(N3CCN=C3c3ccccn3)cc2)C(=O)O1)c1ccc(Cl)s1` [Compound 128]: the Ki on factor Xa is 13.9 nM. Also, in the experiment with thrombus formation, the “% Inhibition (of thrombus formation)” value came out at 22%. The PT with Citrated plasma is 0.95.
With `Cc1ccc(C2=NCCN2c2ccc(N3C[C@H](CNC(=O)c4ccc(Cl)s4)OC3=O)cc2)cc1` [Compound 129], on factor Xa, the Ki was 0.92 nM. The “% Inhibition (of thrombus formation)” value in the experiment on thrombus formation is 0%. In addition, the PT with Citrated plasma turned out to be 0.30.
Regarding `Cc1csc(C2=NCCN2c2ccc(N3C[C@H](CNC(=O)c4ccc(Cl)s4)OC3=O)cc2)n1` [Compound 130], the Ki on factor Xa was 8.6 nM. The “% Inhibition (of thrombus formation)” value in the experiment on thrombus formation was 15%. This compound also came in with a PT in the experiment on Citrated plasma of 0.94.
In the case of `O=C(NC[C@H]1CN(c2ccc(N3CCN=C3c3cccc(Cl)c3)cc2)C(=O)O1)c1ccc(Cl)s1` [Compound 133], at factor Xa, the Ki was 1.21 nM. In the experiment on thrombus formation, the “% Inhibition (of thrombus formation)” value came to 44%. In addition, in the experiment on Citrated plasma, the PT is 0.26.
As for `O=C(NC[C@H]1CN(c2ccc(N3CCN=C3c3ccc(C(F)(F)F)cc3)cc2)C(=O)O1)c1ccc(Cl)s1` [Compound 134], the Ki on factor Xa was 4.01 nM. In the experiment on thrombus formation, the “% Inhibition (of thrombus formation)” value worked out at 4%. In the experiment on Citrated plasma, this compound returned a PT of 0.36.
With `COC(=O)C(C)(C)C1=NCCN1c1ccc(N2C[C@H](CNC(=O)c3ccc(Cl)s3)OC2=O)cc1` [Compound 136], on factor Xa, the Ki was 1.78 nM. In the experiment on thrombus formation, the “% Inhibition (of thrombus formation)” value is on record as 31%. In the experiment with Citrated plasma, this compound returned a PT of 0.10.
As for `O=C(NC[C@H]1CN(c2ccc(N3CCN=C3c3ccc(Cl)s3)cc2)C(=O)O1)c1ccc(Br)s1` [Compound 140], the Ki at factor Xa was 2.63 nM. In addition, the “% Inhibition (of thrombus formation)” value with thrombus formation came out at 40%. Besides, in the experiment with Citrated plasma, the PT is on record as 0.24.
